# From patent US6143719A, “Bradykinin analogs as selective thrombin inhibitors” (The Regents of the University of Michigan, priority 1996, dated 2000)
# Ends that are not written are not given here.
# Molecular target: T1, thrombin receptor (Homo sapiens, UniProt P25116)
# T1 construct: endogenous in cells; host or cells: washed platelets from fresh blood
# T1 sequence (P25116 22-425): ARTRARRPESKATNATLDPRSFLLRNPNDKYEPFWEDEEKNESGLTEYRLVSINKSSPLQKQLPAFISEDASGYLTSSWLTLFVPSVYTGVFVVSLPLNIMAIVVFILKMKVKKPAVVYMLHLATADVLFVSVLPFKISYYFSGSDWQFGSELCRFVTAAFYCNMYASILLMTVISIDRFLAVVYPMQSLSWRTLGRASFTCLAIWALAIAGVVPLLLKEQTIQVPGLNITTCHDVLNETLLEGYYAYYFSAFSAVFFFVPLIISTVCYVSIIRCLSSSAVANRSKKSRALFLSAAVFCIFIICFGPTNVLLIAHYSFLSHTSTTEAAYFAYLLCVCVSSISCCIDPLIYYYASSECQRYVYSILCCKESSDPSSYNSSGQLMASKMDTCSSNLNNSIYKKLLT
# Test: flow cytometry of thrombin receptor epitopes (SPAN12, ATAP138) on α-thrombin activated platelets
# Assay type: cell-based
# Settings: peptide 1 mM, α-thrombin 1 nM
# Description: Flow cytometry studies were performed to determine whether BK analogs prevent α-thrombin from eliminating an epitope on the thrombin receptor which is lost following α-thrombin cleavage- of the receptor. SPAN12 is an antibody to the thrombin receptor on platelets, which is specific for such an epitope. Studies were also performed to determine the effect of BK analogs on an epitope recognized by monoclonal antibody ATAP 138. The antibody is directed to an epitope on the thrombin receptor which is preserved after α-thrombin cleaves the receptor (FIGS. 7A-7D).
# Monoclonal antibody SPAN12 was reared to the 12 amino acids, Asn-Ala-Thr-Leu-Asp-Pro-Arg-Ser-Phe-Leu-Leu-Arg (SEQ ID NO:2), that bridge the α-thrombin cleavage site on the thrombin receptor by the methods of Molinot et al., J. Biol. Chem. 270:ln Press, 1995. […]
# Mouse IgG and an antibody to the epitope CD62 were used as controls. […] The fluorescence of bound FITC-anti-IgG to platelets was monitored on an Epics-C flow cytometer (Coulter Electronics, Hialeah, Fla.). Light scatter and fluorescence channels were set at logarithmic gain. […] Green fluorescence was observed through a 525 nm band pass filter. The relative fluorescence intensity of at least 15,000 platelets was analyzed in each sample. […]
sequence,measurement,value
"RPPGFSPFR [BK, bradykinin]",loss of SPAN12 epitope of thrombin receptor on α-thrombin activated platelets,prevents the loss of the epitope
